Measured values taken from patent US8133849B2, “Herbicidal compounds” (Syngenta Limited, priority 2007, dated 2012).

Experiments:
Test in all cases: Example B2 herbicidal action, post-emergence, pots in glasshouse, damage score 0-10
Format in all cases: in vivo
Conditions in all cases: application post-emergence, rate 1000 g/ha, evaluated after 13 days
Setaria faberi = system: Setaria faberi
Procedure: (§1) Seeds of a variety of test species were sown in standard soil in pots. After 8 days cultivation (post-emergence) under controlled conditions in a glasshouse (at 24/16° C., day/night; 14 hours light; 65% humidity), the plants were sprayed with an aqueous spray solution derived from the formulation of the technical active ingredient in acetone/water (50:50) solution containing 0.5% Tween 20 (polyoxyethelyene sorbitan monolaurate, CAS RN 9005-64-5). The test plants were then grown in a glasshouse under controlled conditions in a glasshouse (at 24/16° C., day/night; 14 hours light; 65% humidity) and watered twice daily. After 13 days, the test was evaluated (10=total damage to plant; 0=no damage to plant).

Ipomea hederaceae = system: Ipomea hederaceae
Procedure: as §1

Amaranthus retroflexus = system: Amaranthus retroflexus
Procedure: as §1

Echinochloa crus-galli = system: Echinochloa crus-galli
Procedure: as §1

Solanum nigrum = system: Solanum nigrum
Procedure: as §1

SMILES	SETFA damage score (10=total damage to plant; 0=no damage to plant) (Setaria faberi)	IPOHE damage score (10=total damage to plant; 0=no damage to plant) (Ipomea hederaceae)	AMARE damage score (10=total damage to plant; 0=no damage to plant) (Amaranthus retroflexus)	ECHCG damage score (10=total damage to plant; 0=no damage to plant) (Echinochloa crus-galli)	SOLNI damage score (10=total damage to plant; 0=no damage to plant) (Solanum nigrum)
CC(C)(C)C(=O)OC1=C(c2c(F)ccc(-c3cccc(Cl)c3)c2Cl)S(=O)(=O)N(CC(F)F)c2nccnc21 [Compound C42, 2,2-dimethylpropionic acid-3-(2,3′-dichloro-4-fluoro-biphenyl-3-yl)-1-(2,2-difluoroethyl)-2,2-dioxo-1,2-dihydro-2-λ-6-thia-1,5,8-triaza-naphthalen-4-yl ester]	2	4	2	2	3
Cc1ccc(C(F)(F)F)c(C2=C(OC(=O)C(C)(C)C)c3nccnc3N(CC(F)F)S2(=O)=O)c1 [Compound C148]	2	8	7	3	9
CCSC(=O)OC1=C(c2c(Cl)cccc2C(F)(F)F)S(=O)(=O)N(CC(F)F)c2nccnc21 [Compound C105]	9	8	10	9	9
CCN1c2nccnc2C(OC(=O)C(C)C)=C(c2ccccc2SC(F)(F)F)S1(=O)=O [Compound C19, isobutyric acid 1-ethyl-2,2-dioxo-3-(2-trifluoromethyl-sulfanyl-phenyl)-1,2-dihydro-2-λ-6-thia-1,5,8-triaza-naphthalen-4-yl ester]	0	8	9	4	6
CCSC(=O)OC1=C(c2c(Cl)ccc(Cl)c2Cl)S(=O)(=O)N(CC(F)F)c2nccnc21 [Compound C37]	6	9	8	8	9
COc1ccc(F)c(C2=C(OC(=O)C(C)C)c3nccnc3N(CC(F)F)S2(=O)=O)c1 [Compound C138]	0	2	0	1	7
COCN1c2nccnc2C(OC(=O)C(C)(C)C)=C(c2ccccc2SC(F)(F)F)S1(=O)=O [Compound C23]	3	4	5	4	6
CC(C)(C)C(=O)OC1=C(c2cc(C(F)(F)F)ccc2C(F)(F)F)S(=O)(=O)N(CC(F)F)c2nccnc21 [Compound C44]	6	10	10	9	10
CCN1c2nccnc2C(OC(=O)C(C)(C)C)=C(c2c(F)ccc(OC)c2Cl)S1(=O)=O [Compound C24]	0	9	2	4	9
CCN1c2nccnc2C(O)=C(c2cccc(C(F)(F)F)c2Cl)S1(=O)=O [Compound D38]	0	5	9	1	8
CCSC(=O)OC1=C(c2c(Cl)ccc(Cl)c2Cl)S(=O)(=O)N(C)c2nccnc21 [Compound C94]	2	9	6	6	9
CCN1c2nccnc2C(O)=C(c2c(Cl)ccc(Cl)c2Cl)S1(=O)=O [Compound D36]	2	10	10	6	10
CS(=O)(=O)OC1=C(c2cc(C(F)(F)F)ccc2Cl)S(=O)(=O)N(CC(F)F)c2nccnc21 [Compound C95]	3	10	7	6	9
CC(C)C(=O)OC1=C(c2c(C(F)(F)F)ccc(Cl)c2Cl)S(=O)(=O)N(CC(F)F)c2nccnc21 [Compound C134]	4	3	8	5	8
CCSC(=O)OC1=C(c2c(F)ccc(Br)c2Cl)S(=O)(=O)N(CC(F)F)c2nccnc21 [Compound C107]	3	6	5	5	7
CCSC(=O)OC1=C(c2cc(C(F)(F)F)ccc2Cl)S(=O)(=O)N(CC)c2nccnc21 [Compound C87]	0	9	7	5	10
CCN1c2nccnc2C(OC(=O)C(C)(C)C)=C(c2cc(C(F)(F)F)ccc2Cl)S1(=O)=O [Compound C33]	0	5	1	0	6
CCN1c2nccnc2C(O)=C(c2ccccc2C(F)(F)F)S1(=O)=O [Compound D33]	8	10	9	8	10
CCN1c2nccnc2C(O)=C(c2cccc(C(F)(F)F)c2)S1(=O)=O [Compound D3]	0	1	10	1	1
CCN1c2nccnc2C(OC(=O)C(C)(C)C)=C(c2cccc(Cl)c2Cl)S1(=O)=O [Compound C98]	0	0	0	0	3
C#CCN1c2nccnc2C(OC(=O)C(C)(C)C)=C(c2c(Cl)ccc(Cl)c2C(F)(F)F)S1(=O)=O [Compound C86]	2	4	5	5	6
O=S1(=O)C(c2cccc(C(F)(F)F)c2Cl)=C(O)c2nccnc2N1CC(F)F [Compound D37]	5	10	10	3	9
CCSC(=O)OC1=C(c2c(Cl)ccc(OC)c2F)S(=O)(=O)N(CC(F)F)c2nccnc21 [Compound C145]	2	8	0	5	8
CCN1c2nccnc2C(O)=C(c2cccc(Cl)c2Cl)S1(=O)=O [Compound D49]	1	6	4	1	8
